From the supplement of paper PMC6965134
± gives the standard deviation of the averaged measurements.

Experiment: TIMS collisional cross section (CCS, N2) of the lipid ion; higher = larger ion cross section
Conditions: ionization mode: positive, one isomer drawn

SMILES	TIMS collisional cross section (sample type: plasma) [Å²]	TIMS collisional cross section (sample type: HeLa) [Å²]	TIMS collisional cross section (sample type: Liver) [Å²]
CCCCCC/C=C\CCCCCCCC(=O)OC[C@H](COC(=O)CCCCCCCCCCCCCCCCCCCCC)OC(=O)CCCCCCCCCCCCCCCCC [TG 16:1_18:0_22:0] (ion (formula + adduct): [C59H112O6+NH4] 1+)	335.9		
CC/C=C\C/C=C\C/C=C\C/C=C\C/C=C\C/C=C\CCC(=O)OC[C@@H](COC(=O)CCCCCCC/C=C\CCCCCC)OC(=O)CCCCCCCCCCCCCCCCC [TG 16:1_18:0_22:6] (ion (formula + adduct): [C59H100O6+NH4] 1+)		327.7	
CCCCCC/C=C\CCCCCCCC(=O)OC[C@H](COC(=O)CCCCCCC/C=C\CCCCCCCC)OC(=O)CCCCCCC/C=C\CCCCCCCC [TG 16:1_18:1_18:1] (ion (formula + adduct): [C55H100O6+NH4] 1+)	320.1	320	
CCCCC/C=C\C/C=C\CCCCCCCC(=O)OC[C@@H](COC(=O)CCCCCCC/C=C\CCCCCC)OC(=O)CCCCCCC/C=C\CCCCCCCC [TG 16:1_18:1_18:2] (ion (formula + adduct): [C55H98O6+NH4] 1+)	317.4 ± 0.42	318.2	317.35 ± 0.35
CCCCCC/C=C\CCCCCCCC(=O)OC[C@H](COC(=O)CCCCCCCCC/C=C\CCCCCCCC)OC(=O)CCCCCCC/C=C\CCCCCCCC [TG 16:1_18:1_20:1] (ion (formula + adduct): [C57H104O6+NH4] 1+)		326	327
CCCCC/C=C\C/C=C\CCCCCCCCCC(=O)OC[C@@H](COC(=O)CCCCCCC/C=C\CCCCCC)OC(=O)CCCCCCC/C=C\CCCCCCCC [TG 16:1_18:1_20:2] (ion (formula + adduct): [C57H102O6+NH4] 1+)			324.7
CCCCC/C=C\C/C=C\C/C=C\C/C=C\CCCC(=O)OC[C@@H](COC(=O)CCCCCCC/C=C\CCCCCC)OC(=O)CCCCCCC/C=C\CCCCCCCC [TG 16:1_18:1_20:4] (ion (formula + adduct): [C57H98O6+NH4] 1+)			323.5
CC/C=C\C/C=C\C/C=C\C/C=C\C/C=C\CCCCCC(=O)OC[C@@H](COC(=O)CCCCCCC/C=C\CCCCCC)OC(=O)CCCCCCC/C=C\CCCCCCCC [TG 16:1_18:1_22:5] (ion (formula + adduct): [C59H100O6+NH4] 1+)	327.7	325.9	
CCCCC/C=C\C/C=C\CCCCCCCC(=O)OC[C@@H](COC(=O)CCCCCCC/C=C\CCCCCC)OC(=O)CCCCCCC/C=C\C/C=C\CCCCC [TG 16:1_18:2_18:2] (ion (formula + adduct): [C55H96O6+NH4] 1+)			315.45 ± 0.49
CC/C=C\C/C=C\C/C=C\CCCCCCCC(=O)OC[C@@H](COC(=O)CCCCCCC/C=C\CCCCCC)OC(=O)CCCCCCC/C=C\C/C=C\CCCCC [TG 16:1_18:2_18:3] (ion (formula + adduct): [C55H94O6+NH4] 1+)	314.1		312.8
CCCCC/C=C\C/C=C\CCCCCCCCCCCC(=O)OC[C@@H](COC(=O)CCCCCCC/C=C\CCCCCC)OC(=O)CCCCCCC/C=C\CCCCCCCCC [TG 16:1_19:1_22:2] (ion (formula + adduct): [C60H108O6+NH4] 1+)		332.3	

Next, values leading:

TIMS collisional cross section (sample type: plasma) [Å²]	TIMS collisional cross section (sample type: HeLa) [Å²]	TIMS collisional cross section (sample type: Liver) [Å²]	SMILES
	323		CCCCC/C=C\C/C=C\C/C=C\C/C=C\CCCC(=O)OC[C@@H](COC(=O)CCCCCCC/C=C\CCCCCC)OC(=O)CCC/C=C\C/C=C\C/C=C\C/C=C\CCCCC [TG 16:1_20:4_20:4] (ion (formula + adduct): [C59H96O6+NH4] 1+)
	328.2		CC/C=C\C/C=C\C/C=C\C/C=C\C/C=C\CCCCCC(=O)OC[C@@H](COC(=O)CCCCCCC/C=C\CCCCCC)OC(=O)CCC/C=C\C/C=C\C/C=C\C/C=C\CCCCC [TG 16:1_20:4_22:5] (ion (formula + adduct): [C61H98O6+NH4] 1+)
	332.4		CC/C=C\C/C=C\C/C=C\C/C=C\C/C=C\C/C=C\CCC(=O)OC[C@@H](COC(=O)CCCCCCC/C=C\CCCCCC)OC(=O)CCCCC/C=C\C/C=C\C/C=C\C/C=C\C/C=C\CC [TG 16:1_22:5_22:6] (ion (formula + adduct): [C63H98O6+NH4] 1+)
	329.5		CC/C=C\C/C=C\C/C=C\C/C=C\C/C=C\C/C=C\CCC(=O)OC[C@@H](COC(=O)CCCCCCC/C=C\CCCCCC)OC(=O)CC/C=C\C/C=C\C/C=C\C/C=C\C/C=C\C/C=C\CC [TG 16:1_22:6_22:6] (ion (formula + adduct): [C63H96O6+NH4] 1+)
322.7	322.1	322.4	CCCCCCC/C=C\CCCCCCCC(=O)O[C@@H](COC(=O)CCCCCCC/C=C\CCCCCCCC)COC(=O)CCCCCCCCCCCCCCCC [TG 17:0_17:1_18:1] (ion (formula + adduct): [C55H102O6+NH4] 1+)
327.4	327.3	327.7	CCCCCCCC/C=C\CCCCCCCC(=O)OC[C@@H](COC(=O)CCCCCCCCCCCCCCCC)OC(=O)CCCCCCCCCCCCCCCCC [TG 17:0_18:0_18:1] (ion (formula + adduct): [C56H106O6+NH4] 1+)
325.5			CCCCCCCC/C=C\CCCCCCCC(=O)OC[C@@H](COC(=O)CCCCCCCCCCCCCCCC)OC(=O)CCCCCCC/C=C\CCCCCCCC [TG 17:0_18:1_18:1] (ion (formula + adduct): [C56H104O6+NH4] 1+)
323.2		322.9	CCCCC/C=C\C/C=C\CCCCCCCC(=O)OC[C@@H](COC(=O)CCCCCCCCCCCCCCCC)OC(=O)CCCCCCC/C=C\CCCCCCCC [TG 17:0_18:1_18:2] (ion (formula + adduct): [C56H102O6+NH4] 1+)
332	330.7	331.2	CCCCCCCC/C=C\CCCCCCCCCC(=O)OC[C@@H](COC(=O)CCCCCCCCCCCCCCCC)OC(=O)CCCCCCC/C=C\CCCCCCCC [TG 17:0_18:1_20:1] (ion (formula + adduct): [C58H108O6+NH4] 1+)
329.3			CCCCC/C=C\C/C=C\CCCCCCCCCC(=O)OC[C@@H](COC(=O)CCCCCCCCCCCCCCCC)OC(=O)CCCCCCC/C=C\CCCCCCCC [TG 17:0_18:1_20:2] (ion (formula + adduct): [C58H106O6+NH4] 1+)
338.7		338.8	CCCCCCCC/C=C\CCCCCCCC(=O)O[C@H](COC(=O)CCCCCCCCCCCCCCCC)COC(=O)CCCCCCCCCCCCCCCCCCCCC [TG 17:0_18:1_22:0] (ion (formula + adduct): [C60H114O6+NH4] 1+)
		326.4	CCCCC/C=C\C/C=C\C/C=C\C/C=C\CCCC(=O)OC[C@@H](COC(=O)CCCCCCCCCCCCCCCC)OC(=O)CCCCCCC/C=C\C/C=C\CCCCC [TG 17:0_18:2_20:4] (ion (formula + adduct): [C58H100O6+NH4] 1+)
